Results on one molecule are retold here after patent US20220387358A1, “CERAMIDE ANALOG SACLAC MODULATES SPHINGOLIPID LEVELS AND MCL-1 SPLICING TO INDUCE APOPTOSIS IN ACUTE MYELOID LEUKEMIA” (University of Virginia Patent Foundation, priority 2019, published 2022).

Structures are written as SMILES. Several values for one entry are separate records, joined by “and”; a condition that tells them apart may be missing. Identical values can stand only once. Entries after “also recorded” stand apart in the source; their conditions may differ.

The test system of data set [1] is OCI-AML2. Kind of data set: Cell viability MTS assay. In kind it is cell-based. Particulars: Homo sapiens, 24-hour treatment. The method, then: (§1) For cell viability, cell lines were plated at 2.5×10^4 cells per well in a 96-well plate and treated with […] or DMSO vehicle (0.4% of total volume) for the indicated time points and doses. At the experiment end point, 3-(4,5-Dimethylthiazol-2-yl)-5-(3-carboxymethoxyphenyl)-2-(4-sulfophenyl)-2H-tetrazolium (MTS) Cell Proliferation Colorimetric Assay Kit (# K300-5000, BioVision, Inc., Milpitas, Calif., United States of America) reagent was added and incubated for 2 hours. Conversion of MTS to formazan product was measured by absorbance at 490 nm using a BioTek Cytation 3 plate reader (BioTeck, Winooski, Vt., United States of America). Absorbance was normalized to DMSO control, which was defined as 100% viability. Due to limited cell numbers, patient samples and normal samples were plated at 5×10^3 cells per well in a 384-well plate with […] or DMSO control for the indicated time points and doses. At the experiment end point, a luminescent reagent sold under the tradename [sequence]-GLOTM (#G7572, Promega Corporation, Madison, Wis., United States of America) was added. After 15 minutes, luminescence was read on a BioTek Cytation 3 plate reader (BioTek, Winooski, Vt., United States of America). Absorbance was normalized to DMSO control, which was defined as 100% viability.
(In general: Tetrazolium dyes change colour on reduction, which living cells bring about.)

For data set [2], the system named is THP-1. Kind of data set: Cell viability MTS assay. The data set is classed as cell-based. Particulars: Homo sapiens, 24-hour treatment. The method, then:
as §1

The subject of data set [3] is HL-60/VCR. The data set is described as follows: Cell viability MTS assay. In kind it is cell-based. Particulars: Homo sapiens, HL60/VCR; 24-hour treatment. The method, then:
as §1

Data set [4] relates to human AML cell lines. The data set is described as follows: Sphingolipid analysis by LC-ESI-MS/MS (S1P, total ceramide). In kind it is cell-based. Particulars: 2.5 μM, 24 hours. On the procedure:
Lipid extraction and analysis was done using liquid chromatography-electrospray ionization-tandem mass spectrometry (LC-ESI-MS/MS) as previously described (22). Cells were plated at 5 million cells per 6 ml and treated with SACLAC or DMSO for 24 hours. Lipids were extracted from cell pellets using an azeotrophic mix of isopropanol: water: ethyl acetate (3:1:6; v:v:v). Internal standards (50 pmol of d17 long-chain bases and C12 acylated sphingolipids) were added to samples at the onset of the extraction procedure. Extracts were separated on a Waters I-class Acquity UPLC chromatography system (Waters Corporation, Milford, Mass., United States of America). Mobile phases were (A) 60:40 water: acetonitrile and (B) 90:10 isopropanol:methanol with both mobile phases containing 5 mM ammonium formate and 0.1% formic acid. A Waters C18 CSH 2.1 mm ID×10 cm column maintained at 65° C. was used for the separation of the sphingoid bases, 1-phosphates, and acylated sphingolipids. The eluate was analyzed with an inline Waters TQ-S mass spectrometer (Waters Corporation, Milford, Mass., United States of America) using multiple reaction monitoring. All data reported are based on monoisotopic mass and are represented as pmol/mg protein.

Data set [5] relates to human MV4-11 AML cells. Kind of data set: MV4-11 AML xenograft model in NSG mice. In kind it is in vivo. The method, then:
MV4-11 AML cells expressing luciferase (luc2) and YFP (39) or U937 AML cells expressing luc2 and tdTomato (#72486, Addgene, Watertown, Mass., United States of America) were used to investigate the efficacy of SACLAC in NOD-scid […] (NSG) mice (Jackson Laboratories, Bar Harbor, Me., United States of America). Maximum tolerated dose and pharmacokinetic studies were also performed to determine safety and delivery of compound.
To assess the efficacy of SACLAC in a transplantable human AML model, two cell line models were used. For the MV4-11 model, 2.5×10^6 luciferase and yellow fluorescent protein (YFP)-expressing MV4-11 cells in HBSS were introduced into 6- to 8-week-old female NSG mice via tail-vein injections. After 10-12 days, engraftment was confirmed using bioluminescence imaging with the IVIS Lumina LT Series III imaging system (PerkinElmer Inc., Waltham, Mass., United States of America). Mice were equally randomized into two groups of three mice and treated with vehicle or SACLAC at 5 mg/kg/day five times per week for 18 total injections. At the end of the treatment, animals were euthanized and peripheral blood was collected for flow cytometry analysis.
Red blood cells (RBC) were lysed with RBC Lysis Buffer (#420301, BioLegend, San Diego, Calif., United States of America) followed by cell surface staining with anti-human CD45 antibodies (#304014, clone HI30, BioLegend, San Diego, Calif., United States of America) and 7AAD (#420404, BioLegend, San Diego, Calif., United States of America) to detect viable human white blood cells (WBC) using an LSR II flow cytometer and BD FACS Diva software. Viable cells were identified by gating on 7AAD-negative cells gated from singlets (SSC-A and FSC-W scales), after excluding the debris (SSC-A and FSC-A scales). Percentage of YFP, tdTomato or hCD45 positive cells was determined in FlowJo software (Becton Dickinson, Franklin Lakes, N.J., United States of America). All animal studies were performed with IACUC approval.

Broadly, the EC50 is the concentration that produces a half-maximal response. A higher EC50 goes with a less potent agent. On to `CCCCCCCCCCCCCCC[C@@H](O)[C@H](CO)NC(=O)CCl` [SACLAC, N-[(2S,3R)-1,3-dihydroxyoctadecan-2-yl]2-chloroacetamide], for which the EC50 in data set [1] was 1800 nM; in data set [2], 2600 nM; in data set [3], 3300 nM. In addition, the “increase in total ceramide” value in data set [4] (HL-60/VCR, THP-1, OCI-AML2) is 2.5 fold and 2- to 3 fold. Also, in data set [4] (HL-60/VCR), the “S1P content reduced by” value is 87%. Moreover, the S1P levels result in data set [4] (OCI-AML2) and in data set [4] (THP-1) was “below the limit of detection” throughout. Moreover, in data set [5] (5 mg/kg i.v. in β-HPCD), the “toxicity in treated animals” value is reported as “No overt toxicity; also recorded: non-toxic”. Besides, the “body weight of treated animals” value in data set [5] (5 mg/kg i.v. in β-HPCD, course of the study) is “weight gain; also recorded: did not lose weight”. Besides, the “decrease in leukemic burden (circulating leukemic cells in blood)” value in data set [5] (5 mg/kg tail-vein, five times per week, 18 injections) was about 75%.
